The NIST ThermoML archive (doi:10.1016/j.jct.2017.03.026)
Several values for one entry are separate records, joined by “and”; a condition that tells them apart may be missing. Equal entries are not always repeated. Numbers after ± are expanded uncertainties.

Experiment: molar heat capacity at constant pressure
Conditions: 101.33 kPa, Crystal, Small (less than 1 g) adiabatic calorimetry

O.O.O.O.O.O=S(=O)([O-])[O-].[Cu+2] [copper(II) sulfate pentahydrate]
Conditions	molar heat capacity at constant pressure
195.86 K	210.72 ± 1.1 J/K/mol
196.02 K	208.8 ± 1.1 J/K/mol
196.2 K	210.85 ± 1.1 J/K/mol
196.62 K	212.01 ± 1.1 J/K/mol
196.78 K	210.59 ± 1.1 J/K/mol
196.97 K	211.56 ± 1.1 J/K/mol
197.34 K	208.77 ± 0.81 J/K/mol
197.52 K	212.45 ± 1.1 J/K/mol
197.54 K	211.37 ± 1.1 J/K/mol
197.92 K	209.01 ± 0.81 J/K/mol
198.12 K	212.62 ± 1.1 J/K/mol
198.28 K	211.94 ± 1.1 J/K/mol
198.86 K	213.01 ± 1.1 J/K/mol
199.03 K	212.84 ± 1.1 J/K/mol
199.23 K	213.44 ± 1.1 J/K/mol
199.77 K	213.38 ± 1.1 J/K/mol
199.89 K	214.1 ± 1.1 J/K/mol
200 K	210.9 ± 0.8 J/K/mol
200.02 K	210.29 ± 0.82 J/K/mol
200.18 K	214.5 ± 1.1 J/K/mol
200.35 K	215.02 ± 1.1 J/K/mol
200.44 K	211.49 ± 0.82 J/K/mol
200.5 K	214.14 ± 1.1 J/K/mol
201.23 K	214.77 ± 1.1 J/K/mol
201.49 K	215.23 ± 1.1 J/K/mol
201.51 K	215.2 ± 1.1 J/K/mol
201.96 K	215.31 ± 1.1 J/K/mol
202.12 K	212.11 ± 0.82 J/K/mol
202.61 K	217.02 ± 1.1 J/K/mol
202.68 K	216.55 ± 1.1 J/K/mol
202.83 K	216.31 ± 1.1 J/K/mol
203.14 K	217.49 ± 1.1 J/K/mol
203.42 K	216.87 ± 1.1 J/K/mol
203.52 K	214.16 ± 0.83 J/K/mol
203.74 K	217.35 ± 1.1 J/K/mol
204.14 K	217.62 ± 1.1 J/K/mol
204.2 K	218.19 ± 1.1 J/K/mol
204.22 K	214.4 ± 0.83 J/K/mol
204.87 K	218.11 ± 1.1 J/K/mol and 218.14 ± 1.1 J/K/mol
205.53 K	218.8 ± 1.1 J/K/mol
205.59 K	218.93 ± 1.1 J/K/mol
205.99 K	219.33 ± 1.1 J/K/mol
206.31 K	219.39 ± 1.1 J/K/mol
206.33 K	215.55 ± 0.83 J/K/mol
206.4 K	220.52 ± 1.1 J/K/mol
206.59 K	216.64 ± 0.83 J/K/mol
206.85 K	220.61 ± 1.1 J/K/mol
207.02 K	220.58 ± 1.1 J/K/mol
207.11 K	220.48 ± 1.1 J/K/mol
207.81 K	220.88 ± 1.1 J/K/mol
208.18 K	221.52 ± 1.1 J/K/mol
208.23 K	222.38 ± 1.1 J/K/mol
208.45 K	218.01 ± 0.83 J/K/mol
208.52 K	222.44 ± 1.1 J/K/mol
209.24 K	222.92 ± 1.1 J/K/mol
209.37 K	222.88 ± 1.1 J/K/mol
209.5 K	223.33 ± 1.1 J/K/mol
209.64 K	219.18 ± 0.84 J/K/mol
209.68 K	223.6 ± 1.1 J/K/mol
209.96 K	223.05 ± 1.1 J/K/mol
210 K	219.4 ± 0.9 J/K/mol
210.49 K	223.26 ± 1.1 J/K/mol
210.58 K	219.18 ± 0.84 J/K/mol
210.67 K	223.74 ± 1.1 J/K/mol
210.83 K	223.72 ± 1.1 J/K/mol
211.38 K	224.39 ± 1.1 J/K/mol
211.61 K	224.89 ± 1.1 J/K/mol
212.1 K	224.82 ± 1.1 J/K/mol
212.14 K	225.35 ± 1.1 J/K/mol
212.68 K	221.85 ± 0.85 J/K/mol
212.7 K	220.97 ± 0.84 J/K/mol
212.75 K	225.67 ± 1.1 J/K/mol
212.81 K	225.63 ± 1.1 J/K/mol
212.95 K	226.54 ± 1.1 J/K/mol
213.47 K	226.67 ± 1.1 J/K/mol
213.52 K	226.64 ± 1.1 J/K/mol
213.88 K	226.4 ± 1.1 J/K/mol
214.25 K	227.02 ± 1.1 J/K/mol
214.8 K	227.75 ± 1.2 J/K/mol
214.83 K	222.9 ± 0.85 J/K/mol
214.96 K	227.58 ± 1.2 J/K/mol
215 K	227.95 ± 1.1 J/K/mol
215.67 K	228.21 ± 1.1 J/K/mol
215.69 K	224.43 ± 0.86 J/K/mol
216.13 K	230.23 ± 1.1 J/K/mol
216.19 K	228.74 ± 1.1 J/K/mol
216.23 K	229.64 ± 1.1 J/K/mol
216.38 K	229.09 ± 1.1 J/K/mol
216.96 K	224.83 ± 0.86 J/K/mol
217.1 K	229.55 ± 1.1 J/K/mol
217.31 K	230.09 ± 1.1 J/K/mol
217.46 K	230.34 ± 1.1 J/K/mol
217.81 K	229.9 ± 1.1 J/K/mol
218.45 K	231.22 ± 1.2 J/K/mol
218.51 K	230.59 ± 1.1 J/K/mol
218.69 K	227.07 ± 0.86 J/K/mol
218.79 K	231.49 ± 1.2 J/K/mol
219.1 K	226.58 ± 0.86 J/K/mol
219.27 K	231.87 ± 1.2 J/K/mol
219.52 K	232.65 ± 1.2 J/K/mol
219.6 K	231.9 ± 1.2 J/K/mol
219.98 K	232.07 ± 1.2 J/K/mol
220 K	228 ± 0.9 J/K/mol
220.12 K	232.93 ± 1.2 J/K/mol
220.68 K	232.63 ± 1.2 J/K/mol
220.72 K	233.3 ± 1.2 J/K/mol
221.23 K	229.07 ± 0.87 J/K/mol
221.39 K	233.36 ± 1.2 J/K/mol
221.44 K	233.44 ± 1.2 J/K/mol
221.67 K	229.65 ± 0.87 J/K/mol
221.86 K	234.58 ± 1.2 J/K/mol
222.09 K	234.58 ± 1.2 J/K/mol
222.76 K	235.19 ± 1.2 J/K/mol
222.81 K	235.64 ± 1.2 J/K/mol and 235.01 ± 1.2 J/K/mol
223 K	235.73 ± 1.2 J/K/mol
223.42 K	230.15 ± 0.87 J/K/mol
223.51 K	235.25 ± 1.2 J/K/mol
224.08 K	236.48 ± 1.2 J/K/mol
224.14 K	236.55 ± 1.2 J/K/mol
224.22 K	235.98 ± 1.2 J/K/mol
224.64 K	232.13 ± 0.87 J/K/mol
224.92 K	236.68 ± 1.2 J/K/mol
225.28 K	237.03 ± 1.2 J/K/mol
225.45 K	237.85 ± 1.2 J/K/mol
225.57 K	231.89 ± 0.87 J/K/mol
225.62 K	237.74 ± 1.2 J/K/mol
226.1 K	239.21 ± 1.2 J/K/mol
226.33 K	238.26 ± 1.2 J/K/mol
226.41 K	238.72 ± 1.2 J/K/mol
226.77 K	238.57 ± 1.2 J/K/mol
227.03 K	238.58 ± 1.2 J/K/mol
227.55 K	239.68 ± 1.2 J/K/mol
227.61 K	234.56 ± 0.88 J/K/mol
227.72 K	233.69 ± 0.88 J/K/mol
227.73 K	239.34 ± 1.2 J/K/mol
228.08 K	239.61 ± 1.2 J/K/mol
228.43 K	239.99 ± 1.2 J/K/mol
228.69 K	240.1 ± 1.2 J/K/mol
229.13 K	241.13 ± 1.2 J/K/mol
229.38 K	242.74 ± 1.2 J/K/mol and 240.91 ± 1.2 J/K/mol
229.82 K	241.69 ± 1.2 J/K/mol
229.84 K	241.43 ± 1.2 J/K/mol
229.87 K	235.54 ± 0.88 J/K/mol
230 K	236.5 ± 0.9 J/K/mol
230.54 K	237.24 ± 0.89 J/K/mol
230.59 K	242.26 ± 1.2 J/K/mol
230.69 K	242.63 ± 1.2 J/K/mol
230.95 K	243.17 ± 1.2 J/K/mol
231.28 K	242.67 ± 1.2 J/K/mol
231.97 K	243.3 ± 1.2 J/K/mol
232 K	244.22 ± 1.2 J/K/mol
232.02 K	238.28 ± 0.89 J/K/mol
232.09 K	244.43 ± 1.2 J/K/mol
232.67 K	243.85 ± 1.2 J/K/mol
232.75 K	246.09 ± 1.2 J/K/mol
233.23 K	245.48 ± 1.2 J/K/mol
233.31 K	244.86 ± 1.2 J/K/mol
233.36 K	244.3 ± 1.2 J/K/mol
